Reference: patent US10676429B2, “Sulfamoyl-arylamides and the use thereof as medicaments for the treatment of hepatitis B” (priority 2012, dated 2020)

Experiments:
[1] = tested on: HBV; experiment: Anti-HBV activity in stable transfected HepG2.2.15 cell line (HBV DNA from secreted virions, realtime PCR); assay type: cell-based; conditions: HepG2.2.15 cells, 6 days of treatment, secreted virion HBV DNA, read-out: HepG2 2.15 EC50
[2] = tested on: HBV; experiment: Anti-HBV activity in HepG2.117 cell line (Tet-off, intracellular HBV DNA, realtime PCR); assay type: cell-based; conditions: HepG2.117 cells, 3 days of treatment, intracellular HBV DNA, read-out: HepG2 117 EC50
[3] = Cytotoxicity in HepG2 cells using CellTiter-Blue (6 days); conditions: human
[4] = Cytotoxicity in HepG2 cells, 4 days, Resazurin assay; conditions: human
[5] = tested on: HepG2 cells; experiment: Cytotoxicity in HepG2 cells using CellTiter-Blue (6 days); conditions: read-out: HepG2 6 days CC50, 6 days, CellTiter-Blue
[6] = tested on: HepG2 cells; experiment: Cytotoxicity in HepG2 cells, 4 days, Resazurin assay; conditions: read-out: HepG2 4 days CC50; HepG2 cells, 4 days, Resazurin
[7] = Hepatitis B virus, HepG2.2.15, 144 h
[8] = Hepatitis B virus, HepG2.117, 72 h

Row | Compound | EC50 [1, 7] [µM] | EC50 [2, 8] [µM] | CC50 [6] [µM] | further results
1 | O=C(Nc1ccccc1Cl)c1cc(S(=O)(=O)NC2CCCCC2)ccc1F [Compound 42] | 11.6 | > 25 | – | CC50 at 6 days [3]: 37.2 µM
2 | Cc1cccc(NC(=O)c2cc(S(=O)(=O)N3CCOCC3)ccc2Cl)c1 [Compound 27] | 1.13 | – | – | CC50 at 6 days [3]: > 25 µM
3 | O=C(Nc1ccccc1)c1cc(S(=O)(=O)N2CCCCC2)c(Cl)cc1Cl [Compound 20] | 0.5 | 1 | – | CC50 at 4 days [4]: 79.6 µM; CC50 [5]: > 25 µM
4 | Cc1cc(NC(=O)c2cccc(S(=O)(=O)NC3Cc4ccccc4C3O)c2)ccc1F (single isomer, unassigned) [Compound 141d, N-(4-fluoro-3-methyl-phenyl)-3-[[(1R,2S)-1-hydroxyindan-2-yl]sulfamoyl]benzamide or N-(4-fluoro-3-methyl-phenyl)-3-[[(1S,2R)-1-hydroxyindan-2-yl]sulfamoyl]benzamide] | – | – | > 25 | EC50 [1]: 0.56 µM; EC50 [2]: 1.14 µM
5 | CC(C)(C)NS(=O)(=O)c1cccc(C(=O)Nc2ccc(F)cc2)c1 [Compound 28] | 1.24 | 2.28 | 52.5 | –
6 | O=C(Nc1ccc(F)cc1)c1cccc(S(=O)(=O)NC2COC2)c1 [Compound 3] | 2.1 | 3.05 | > 100 | –
7 | CN1CCN(S(=O)(=O)c2cccc(C(=O)Nc3ccc(F)cc3)c2)CC1 [Compound 44] | 26.5 | 11.1 | > 100 | –
8 | Cc1cc(NC(=O)c2cccc(S(=O)(=O)NC3CC(=O)N(C)C3)c2)ccc1F (racemic) [Compound 179b] | – | – | > 25 | EC50 [1]: 1.11 µM; EC50 [2]: 1.84 µM
9 | O=C(Nc1ccc(F)cc1)c1cccc(S(=O)(=O)NC2CCOCC2)c1 [Compound 1] | 0.93 | 1.67 | > 100 | –
10 | O=C(Nc1ccccc1Cl)c1ccc(Cl)c(S(=O)(=O)N2CCCCCC2)c1 [Compound 33] | 3.56 | – | – | CC50 at 6 days [3]: > 25 µM
11 | Cc1cc(NC(=O)c2cccc(S(=O)(=O)NC3CCC(O)C3)c2)ccc1F (single isomer, unassigned) [Compound 145b, N-(4-fluoro-3-methyl-phenyl)-3-[[(1R,3S)-3-hydroxycyclopentyl]sulfamoyl]benzamide or N-(4-fluoro-3-methyl-phenyl)-3-[[(1S,3R)-3-hydroxycyclopentyl]sulfamoyl]benzamide] | – | – | > 25 | EC50 [1]: 0.44 µM; EC50 [2]: 0.58 µM
12 | O=C(Nc1ccc(F)cc1)c1cc(S(=O)(=O)N2CCOCC2)ccc1Cl [Compound 29] | 1.39 | – | – | CC50 at 6 days [3]: > 25 µM
13 | COc1ccc(NC(=O)c2ccc(Cl)c(S(=O)(=O)N3CCCCCC3)c2)cc1 [Compound 32] | 2.59 | 4.58 | – | CC50 at 4 days ([4]; HepG2 cells): > 25 µM; CC50 at 6 days [3]: 9.9 µM
14 | O=C(Nc1ccc(F)cc1)c1cc(S(=O)(=O)NC2CCCCC2)ccc1F [Compound 18] | 0.78 | 1.3 | > 50 | CC50 at 6 days [3]: 51.6 µM
15 | CN(C)S(=O)(=O)c1cccc(C(=O)Nc2ccc(F)cc2)c1 [Compound 37] | 5.02 | 2.99 | > 100 | –
16 | O=C(Nc1ccccc1)c1cc(S(=O)(=O)NC2CCCCC2)ccc1F [Compound 19] | 0.66 | 0.6 | > 25 | CC50 at 6 days [3]: 42.5 µM
17 | CCN(CC)S(=O)(=O)c1ccc(Cl)c(C(=O)Nc2ccccc2)c1 [Compound 26] | 1.04 | – | – | CC50 [5]: > 25 µM
18 | O=C(Nc1ccccc1)c1cc(S(=O)(=O)NCc2ccccc2)ccc1Cl [Compound 25] | 0.8 | 1.02 | – | CC50 at 4 days ([4]; HepG2 cells): > 6.25 µM; CC50 at 6 days [3]: > 25 µM
19 | O=C(Nc1ccccc1)c1cccc(S(=O)(=O)NC2CCCC2)c1 [Compound 21] | 0.6 | 0.76 | – | CC50 at 4 days ([4]; HepG2 cells): 41.1 µM; CC50 [5]: 27.2 µM
20 | Cc1cc(NC(=O)c2cccc(S(=O)(=O)NC3CC(=O)N(C)C3)c2)ccc1F (racemic) [Compound 179a] | – | – | > 25 | EC50 [1]: 0.38 µM; EC50 [2]: 0.25 µM
21 | Cc1cc(NC(=O)c2cccc(S(=O)(=O)NC3CCC(O)C3)c2)ccc1F (single isomer, unassigned) [Compound 145c, N-(4-fluoro-3-methyl-phenyl)-3-[[(1S,3S)-3-hydroxycyclopentyl]-sulfamoyl]benzamide or N-(4-fluoro-3-methyl-phenyl)-3-[[(1R,3R)-3-hydroxycyclopentyl]sulfamoyl]benzamide] | – | – | > 25 | EC50 [1]: 0.34 µM; EC50 [2]: 0.34 µM
22 | O=C(Nc1ccc(F)cc1)c1cccc(S(=O)(=O)NC2CCCC2)c1 [Compound 2] | 0.47 | 0.56 | 32.7 | –
23 | O=C(Nc1ccc(Br)cc1)c1ccc(Cl)c(S(=O)(=O)N2CCCCCC2)c1 [Compound 30] | 1.67 | – | – | CC50 at 6 days [3]: > 25 µM

Row | Compound | EC50 [1, 7] [µM] | EC50 [2, 8] [µM] | CC50 [6] [µM] | further results
24 | Cc1cc(NC(=O)c2cccc(S(=O)(=O)N[C@H]3CCOC3)c2)c(F)cc1F [Compound 106] | 2.22 | 3.3 | > 25 | –
25 | COc1cc(NC(=O)c2cccc(S(=O)(=O)N[C@H]3CCOC3)c2)ccc1F [Compound 103] | 2.33 | 2.66 | > 25 | –
26 | Cc1cc(NC(=O)c2cccc(S(=O)(=O)NC3Cc4ccccc4C3O)c2)ccc1F (single isomer, unassigned) [Compound 141b, N-(4-fluoro-3-methyl-phenyl)-3-[[(1R,2S)-1-hydroxyindan-2-yl]sulfamoyl]benzamide or N-(4-fluoro-3-methyl-phenyl)-3-[[(1S,2R)-1-hydroxyindan-2-yl]sulfamoyl]benzamide] | – | – | > 25 | EC50 [1]: 0.27 µM; EC50 [2]: 0.23 µM
27 | Cc1cc(NC(=O)c2cccc(S(=O)(=O)NC3(C)COC3)c2)c(C)cc1F [Compound 119] | 3.06 | 1.91 | > 25 | –
28 | O=C(Nc1cccc(F)c1)c1cccc(S(=O)(=O)NC2CCCC2)c1 [Compound 77] | 0.27 | 0.43 | > 25 | –
29 | O=C(Nc1ccc(F)cc1)c1cccc(S(=O)(=O)N[C@H]2CCOC2)c1 [Compound 9] | 0.54 | 1.36 | > 100 | –
30 | O=C(Nc1cccc(F)c1)c1cc(S(=O)(=O)N2CCCC2)c(Cl)cc1Cl [Compound 24] | 0.79 | – | – | CC50 at 6 days [3]: > 25 µM
31 | Cc1cc(NC(=O)c2cccc(S(=O)(=O)NC3Cc4ccccc4C3O)c2)ccc1F (single isomer, unassigned) [Compound 141c, N-(4-fluoro-3-methyl-phenyl)-3-[[(1S,2S)-1-hydroxyindan-2-yl]-sulfamoyl]benzamide or N-(4-fluoro-3-methyl-phenyl)-3-[[(1R,2R)-1-hydroxyindan-2-yl]sulfamoyl]benzamide] | – | – | > 25 | EC50 [1]: 0.17 µM; EC50 [2]: 0.29 µM
32 | CN1CCC(NS(=O)(=O)c2cccc(C(=O)Nc3ccc(F)cc3)c2)CC1 [Compound 45] | 59.3 | 16 | > 100 | –
33 | CC(C)NS(=O)(=O)c1cccc(C(=O)Nc2ccc(F)cc2)c1 [Compound 47] | 0.74 | 0.96 | 57.5 | –
34 | Cc1c(F)ccc(NC(=O)c2cccc(S(=O)(=O)NC3(C)COC3)c2)c1C [Compound 115] | 2.74 | 1.65 | > 25 | –
35 | Cc1cccc(NC(=O)c2cc(S(=O)(=O)N3CCCCC3)ccc2Cl)c1 [Compound 22] | 0.52 | – | – | CC50 at 6 days [3]: > 25 µM
36 | CC(=O)N1CCC(NS(=O)(=O)c2cccc(C(=O)Nc3ccc(F)cc3)c2)CC1 [Compound 39] | 6.77 | 4.68 | > 100 | –
37 | CC(=O)N1CCN(S(=O)(=O)c2cccc(C(=O)Nc3ccc(F)cc3)c2)CC1 [Compound 40] | 7.1 | 6.29 | > 100 | –
38 | O=C(Nc1ccc(Cl)cc1)c1cc(S(=O)(=O)NC2CCCCC2)ccc1F [Compound 38] | < 6.25 | 15.5 | – | CC50 at 4 days ([4]; HepG2 cells): 22.1 µM; CC50 at 6 days [3]: 18.4 µM
39 | CN(C1CCCC1)S(=O)(=O)c1cccc(C(=O)Nc2ccc(F)cc2)c1 [Compound 46] | 2.61 | 11.1 | 23.8 | –
40 | O=C(Nc1ccc(F)cc1)c1cccc(S(=O)(=O)N[C@@H]2CCOC2)c1 [Compound 8] | 1.18 | 2.03 | > 100 | –
41 | O=C(Nc1ccc(F)cc1)c1cccc(S(=O)(=O)NC2CCC2)c1 [Compound 5] | 0.83 | 0.9 | 57.7 | –
42 | O=C(Nc1cccc(Cl)c1)c1cc(S(=O)(=O)NC2CCCCC2)ccc1F [Compound 43] | 15.1 | > 25 | – | CC50 at 4 days ([4]; HepG2 cells): > 25 µM; CC50 at 6 days [3]: 36.3 µM
43 | O=C(Nc1ccc(F)cc1)c1cccc(S(=O)(=O)N2CCCCC2)c1 [Compound 35] | 4.5 | 2.7 | 70.4 | –
44 | Cc1cc(NC(=O)c2cccc(S(=O)(=O)NC3CCC(O)C3)c2)ccc1F (single isomer, unassigned) [Compound 145d, N-(4-fluoro-3-methyl-phenyl)-3-[[(1S,3S)-3-hydroxycyclopentyl]-sulfamoyl]benzamide or N-(4-fluoro-3-methyl-phenyl)-3-[[(1R,3R)-3-hydroxycyclopentyl]sulfamoyl]benzamide] | – | – | > 25 | EC50 [1]: 0.4 µM; EC50 [2]: 0.64 µM
45 | O=C(Nc1ccccc1)c1ccc(F)c(S(=O)(=O)NC2CCCCC2)c1 [Compound 31] | 2.23 | – | – | CC50 [5]: 16.4 µM
